Measurements published in paper PMC2629381 (Biochemistry, 2008).

Target: GluR4 (GluR4flip) (Rattus norvegicus, UniProt P19493, L505Y)
Assay: whole-cell voltage-clamp dose-response
Type: cell-based

Chain of GluR4 (GluR4flip) (P19493 21-902 isoform P19493-2 L505Y): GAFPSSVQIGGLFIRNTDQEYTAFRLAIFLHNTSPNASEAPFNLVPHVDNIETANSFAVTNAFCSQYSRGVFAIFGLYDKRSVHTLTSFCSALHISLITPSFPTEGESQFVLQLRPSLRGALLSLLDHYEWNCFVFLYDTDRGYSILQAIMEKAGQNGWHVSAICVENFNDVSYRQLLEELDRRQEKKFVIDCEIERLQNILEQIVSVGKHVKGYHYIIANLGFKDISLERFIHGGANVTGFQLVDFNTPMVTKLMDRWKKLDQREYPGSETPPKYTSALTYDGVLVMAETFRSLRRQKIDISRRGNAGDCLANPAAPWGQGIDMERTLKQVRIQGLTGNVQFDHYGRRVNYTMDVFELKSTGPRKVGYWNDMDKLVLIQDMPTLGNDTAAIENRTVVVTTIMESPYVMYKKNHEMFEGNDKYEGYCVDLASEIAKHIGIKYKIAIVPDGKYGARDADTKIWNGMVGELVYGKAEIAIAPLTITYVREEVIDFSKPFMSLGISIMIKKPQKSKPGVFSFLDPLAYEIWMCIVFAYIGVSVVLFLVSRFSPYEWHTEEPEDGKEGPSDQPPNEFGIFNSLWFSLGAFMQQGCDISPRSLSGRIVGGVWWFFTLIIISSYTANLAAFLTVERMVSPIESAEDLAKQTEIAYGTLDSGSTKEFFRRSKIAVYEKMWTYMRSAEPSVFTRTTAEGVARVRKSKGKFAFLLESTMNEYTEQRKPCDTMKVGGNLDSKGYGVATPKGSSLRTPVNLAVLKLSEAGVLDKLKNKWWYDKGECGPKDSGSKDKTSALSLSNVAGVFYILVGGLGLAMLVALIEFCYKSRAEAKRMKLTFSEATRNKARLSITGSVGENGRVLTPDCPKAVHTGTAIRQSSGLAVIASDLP

In the case of `C=C(C)[C@H]1CN[C@H](C(=O)O)[C@H]1CC(=O)O` [Kainate, 2-carboxy-3-carboxymethyl-4-isopropenyl-pyrrolidine], the EC50 is reported as 92 ± 14 µM.
